Molecular target: T1, RhaD (L-rhamnulose-1-phosphate aldolase) (Escherichia coli, UniProt P32169)
T1 sequence (P32169 1-274): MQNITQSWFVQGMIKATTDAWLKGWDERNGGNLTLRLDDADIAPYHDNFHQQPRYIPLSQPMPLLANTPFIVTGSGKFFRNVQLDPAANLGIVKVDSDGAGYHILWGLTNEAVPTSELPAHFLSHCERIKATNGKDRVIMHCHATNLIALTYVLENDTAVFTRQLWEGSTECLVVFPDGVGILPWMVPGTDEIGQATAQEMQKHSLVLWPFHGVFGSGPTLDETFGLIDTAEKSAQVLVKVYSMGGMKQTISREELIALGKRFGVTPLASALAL
Assay: aldol condensation, dephosphorylation, Bio-LC of sorbose and psicose
Format: biochemical
Conditions: 50 mM Tris-HCl pH 7.0, 50 °C

Structure (SMILES) | aldol condensation, dephosphorylation, Bio-LC of sorbose and psicose (co-substrate GA) | aldol condensation, dephosphorylation, Bio-LC of sorbose and psicose (co-substrate DHAP)
O=C(CO)COP(=O)(O)O [dihydroxyacetone phosphate] | S1P and P1P were condensed from DHAP and GA using RhaD | –
O=C[C@H](O)CO [GA] | – | S1P and P1P were condensed from DHAP and GA using RhaD

— article PMC5434028, “Structure-based prediction and identification of 4-epimerization activity of phosphate sugars in class II aldolases” (Scientific Reports, 2017)
